Values quoted from earlier work in patent publication US20170340738A1, “STABLE ACIDIC INSULIN FORMULATIONS” (MERCK SHARP & DOHME CORP., priority 2012, published 2017).

Conditions: administered once daily subcutaneously

In the case of “Gly(A21), Arg(B31), Arg(B32)-human insulin [insulin glargine]”, the Basal coverage is given as 24 h.
